Test results reported in ChEMBL document CHEMBL1157269, “Antineoplastic agents. 551. Isolation and structures of bauhiniastatins 1-4 from Bauhinia purpurea” (2006).
≈ marks a conversion by molar mass, not a printed value.

Experiments:
Assay type in all cases: functional
[1] = tested on: BXPC-3; assay: Growth inhibition of human BXPC3 cells
[2] = tested on: DU-145; assay: Growth inhibition of human DU145 cells
[3] = tested on: MCF7; assay: Growth inhibition of human MCF7 cells
[4] = tested on: NCI-H460; assay: Growth inhibition of human NCI-H460 cells
[5] = tested on: P388; assay: Growth inhibition of mouse P388 cells
[6] = tested on: KM-20L2; assay: Growth inhibition of human KM20L2 cells
[7] = tested on: SF-268; assay: Growth inhibition of human SF268 cells

SMILES | GI50 [1] | GI50 [2] | GI50 [3] | GI50 [4] | GI50 [5] | GI50 [6] | GI50 [7]
COc1c(C)c(O)c2c(c1OC)C=Cc1c(O)cccc1O2 [BAUHINIASTATIN 2] | 3.8 µg/mL (≈ 12.7 µM) | 3.8 µg/mL (≈ 12.7 µM) | 3.1 µg/mL (≈ 10.3 µM) | 3.5 µg/mL (≈ 11.7 µM) | 23.2 µg/mL (≈ 77.3 µM) | > 10 µg/mL | 3.2 µg/mL (≈ 10.7 µM)
COc1cc2c(c(O)c1C)Oc1c(O)ccc(OC)c1C=C2 [BAUHINIASTATIN 3] | 6.6 µg/mL (≈ 22 µM) | 5.8 µg/mL (≈ 19.3 µM) | 3.2 µg/mL (≈ 10.7 µM) | 6.1 µg/mL (≈ 20.3 µM) | 15.7 µg/mL (≈ 52.3 µM) | > 10 µg/mL | 5.8 µg/mL (≈ 19.3 µM)
COc1c(C)c(O)cc2c1Oc1cccc(O)c1C=C2 [BAUHINIASTATIN 4] | – | – | – | – | 61.5 µg/mL (≈ 228 µM) | – | –
COc1cc2c(c(O)c1C)Oc1cccc(O)c1C=C2 [PACHARIN] | 4.3 µg/mL (≈ 15.9 µM) | 3.3 µg/mL (≈ 12.2 µM) | 2.3 µg/mL (≈ 8.51 µM) | 4.2 µg/mL (≈ 15.5 µM) | 15.5 µg/mL (≈ 57.3 µM) | > 10 µg/mL | 3.1 µg/mL (≈ 11.5 µM)
O=c1[nH]cc(F)c(=O)[nH]1 [FLUOROURACIL] | – | – | – | – | 0.073 µg/mL (≈ 0.561 µM) | – | –
COc1c(C)c(=O)c2oc3cccc(O)c3ccc=2c1=O [BAUHINIASTATIN 1] | 7 µg/mL (≈ 24.6 µM) | > 10 µg/mL | 4.1 µg/mL (≈ 14.4 µM) | 6.6 µg/mL (≈ 23.2 µM) | 0.65 µg/mL (≈ 2.29 µM) | > 10 µg/mL | 2.4 µg/mL (≈ 8.44 µM)
